Experimental data from patent publication EP0465913B1, “Diaminotrifluoromethylpyrimidine derivatives, process for their production and phospholipase A2 inhibitor containing them” (ISHIHARA SANGYO KAISHA, LTD., priority 1990, dated 1992).
Like-named read-outs stand apart in the source and are kept apart here.

What was measured:
[1] = molecular target: T1, Porcine pancreatic phospholipase A2 (Sus scrofa, UniProt P00592); assay: Phospholipase A2 inhibitory activity, method A (egg yolk lecithin substrate); format: biochemical; conditions: 1,000 ppm, 37°C for 30 minutes, read-out: % inhibition of PLA2 (1,000 ppm)
T1 construct: purchased Boehringer Mannheim·Yamanouchi K.K. 161454·122416
Protocol: To 10 mg of egg yolk lecithin (manufactured by Wako Pure Chemical Industries Ltd.), 1 ml of glycerine, 2 ml of a 50 mM Tris-HCl buffer solution (pH7.5) [Tris(hydroxymethyl)aminomethane (manufactured by Nacalai Tesque K.K.) was adjusted to pH7.5 with hydrochloric acid], 0.5 ml of a 150 mM calcium chloride solution (calcium chloride was dissolved in a 50 mM Tris-HCl buffer solution) and 0.5 ml of a 0.05% Triton-X100 (manufactured by Nacalai Tesque K.K.) solution (Triton-X100 was dissolved in a 50 mM Tris-HCl buffer solution), were added and dispersed by an agate mortar or dispersed by an ultrasonic processor (Model W-225, manufactured by Heat System-Ultrasonics, Inc.) for 5 minutes (30W) to obtain a substrate.
(§1) Porcine pancreatic phospholipase A2 [(161454·122416) manufactured by Boehringer Mannheim·Yamanouchi K.K.] was used.
To a 96 well microtitration plate (flat bottom, manufactured by Sumitomo Bakelite Medical Co., Ltd.), 40 µl of the substrate, 5 µl of a solution prepared by dissolving 10 mg of a test compound in 500 µl of dimethylsulfoxide, followed by an addition of 500 µl of a 50 mM Tris-HCl buffer solution, and 5 µl of an enzyme solution of 20 ng/ml (prepared by diluting the enzyme in a 50 mM Tris-HCl buffer solution), were added and reacted at 37°C for 30 minutes. After termination of the reaction, the released free fatty acid was quantitatively analyzed in accordance with the ACS-ACOD (acyl CoA synthetase-acyl CoA oxidase) method [a kit of NEFA C test wako (manufactured by Wako Pure Chemical Industries, Ltd.) was used]. The quantitative analysis was made by means of Microplate ELISA Reader (Model 2550EIA Reader, manufactured by Bio-Rad Laboratories) at a wavelength of 540 nm. Separately, such experiments as mentioned above, were carried out at various concentrations (2 µg/ml, 1 µg/ml and 0.5 µg/ml) of phospholipase A2 without a test compound. Then, the concentration of the free fatty acid versus the concentration of phospholipase A2 was plotted.
(§2) From this standard curve, the apparent concentration of phospholipase A2 in the case with a test compound, was read. Then, the percent inhibition of the enzyme was calculated by the following formula. Percent inhibition (%) = (l -(A)/(B)) x 100 [formula] • A: Apparent enzyme concentration when a test compound is added. • B: True enzyme concentration when a test compound is added.

[2] = Acute toxicity, intravenous injection (LD50); format: in vivo; conditions: mouse, in vivo, ddy male mice, sodium salt, mortality over one week
Protocol: Administration route: Intravenous injection
Using ddy male mice (body weight: 25 - 30 g), each test group consisted of 5 mice. A test compound was dissolved in the form of a sodium salt in a physiological saline or in a 5% glucose aqueous solution, and intravenously injected in an amount of 0.1 ml/10 g body weight. After the injection, the mortality rate was obtained over one week, and the median lethal dose LD50 (mg/kg) was determined.

[3] = tested on: experimental acute pancreatitis model; assay: Effects against acute pancreatitis (Test Example 8, closed duodenal loop method, lesion scores); format: in vivo, Crj-CD male rats; conditions: sodium salt, 6 hours after ventrotomy; for inhibition in vivo at 10 mg/kg: Rattus norvegicus, 10 mg/kg single intravenous injection
Protocol: Using Crj-CD male rats, each test group consisted of 3 rats. An experimental acute pancreatitis model was prepared by a closed duodenal loop method under anethesia with halothane (manufactured by Hoechst Japan) and nitrous oxide (manufactured by Sumitomo Seika K.K.) applied by a general inhalation anesthesia machine (Model EM2 and halothane evaporator F-Model). Each compound (subjected to the test in the form of a sodium salt) was continuously intravenously injected into the tail vein in an amount of 0.4 ml/100 g to 0.6 ml/100 g at a rate of 0.05 ml per minute by a pump (Technicon AA II Proportioning Pump III, manufactured by Technicon Instruments Corporation) or rapidly intravenously injected. No injection was made to a control group. Gross pathological examination was conducted upon expiration of 6 hours after the ventrotomy in the case of the group to which the compound was administered. With respect to each of four lesions among pancreatic lesions i.e. petechia, ecchymosis, pancreatic necrosis and abdominal fatty necrosis, the grade and the distribution of lesions were scored with five grades of 0, 0.5, 1, 2 and 3 (severe lesions are 3). The sum of all lesions was designated as scores of pancreatitis lesions, and the sum of the score of petechia and the score of ecchymosis only was designated as scores of hemorrhagic lesions. The pancreatitis inhibition rate (%) and the hemorrhage inhibition rate (%) were obtained by the following formulas, and the results are shown in Table 13. Pancreatitis inhibition rate (%) = (l -(H)/(G)) x 100 [formula] • H: Scores of pancreatitis lesions of the group to which a test compound was administered. • G: Scores of pancreatitis lesions of the control group. Hemorrhage inhibition rate (%) = (l -(J)/(I)) x 100 [formula] • J: Scores of hemorrhagic lesions of the group to which a test compound was administered. • I: Scores of hemorrhagic lesions of the control group.

[4] = molecular target: T1, Porcine pancreatic phospholipase A2; assay: Phospholipase A2 inhibitory activity, method B (L-α-dipalmitoylphosphatidylcholine substrate); format: biochemical; conditions: 1,000 ppm, 37°C for 30 minutes, read-out: % inhibition of PLA2 (1,000 ppm)
Protocol: To a solution prepared by dissolving 9.2 mg of L-α-dipalmitoylphosphatidylcholine (manufactured by Nichiyu Liposome K.K.) in 0.5 ml of chloroform, a solution prepared by dissolving 32 mg of sodium cholate (manufactured by Wako Pure Chemical Industries, Ltd.) in 0.5 ml of methanol, was added, followed by mixing. The solvent of the mixture was removed under a nitrogen stream, and then 2.5 ml of a 250 mM sodium chloride solution [prepared by dissolving sodium chloride in a 100 mM Tris-HCl buffer solution {tris(hydroxymethyl)aminomethane (manufactured by Nacalai Tesque K.K.) was adjusted to pH8.0 with hydrochloric acid}] was added thereto, and the mixture was dissolved under stirring to obtain a substrate.
as §1
To a 96 well microtitration plate, 20 µl of a solution containing calcium chloride, bovine serum alubmin (manufactured by Sigma Chemical, Co.) and a Tris-HCl buffer solution (pH8.0) at concentrations of 25 mM, 4.5 mg/ml and 100 mM, respectively, 5 µl of a solution prepared by dissolving 10 mg of a test compound in 500 µl of diemthylsulfoxide, followed by an addition of 500 µl of a 200 mM Tris-HCl buffer solution, 5 µl of an enzyme solution (10 µg/ml) [prepared by dissolving the enzyme in a bovine serum alubmin solution (prepared by dissolving bovine serum alubmin in a 100 mM Tris-HCl buffer solution at a concentration of 1 mg/ml)] and 20 µl of the substrate, were added and reacted at 37°C for 30 minutes. After termination of the reaction, the released free fatty acid was quantitatively analyzed in accordance with the ACS-ACOD (acyl CoA synthetase-acyl CoA oxidase) method [a kit of NEFA C test wako (manufactured by Wako Pure Chemical Industries, Ltd.) was used]. The quantitative analysis was made by means of Microplate ELISA Reader (Model 2550EIA Reader, manufactured by Bio-Rad Laboratories) at a wavelength of 540 nm. Separately, such experiments as mentioned above, were carried out at various concentrations (1 µg/ml, 0.75 µg/ml, 0.5 µg/ml and 0.25 µg/ml) of phospholipase A2 without a test compound. Then, the concentration of the free fatty acid versus the concentration of phospholipase A2 was plotted.
as §2

[5] = tested on: carrageenin edema; assay: Inhibitory activity on carrageenin edema; format: in vivo, Wistar male rats; conditions: rat; dose 50 mg/kg orally; paw swelling volume three hours after carrageenin
Protocol: Using Wistar male rats (body weight: about 100 g), each test group consisted of 5 rats. A test compound was mixed with Tween 80 [polyoxyethylenesorbitan monooleate (manufactured by Nacalai Tesque K.K.)], and distilled water was added thereto to obtain a 2% Tween 80 suspension, or it was dissolved in the form of a salt in water to obtain an aqueous solution. Either the suspension or the aqueous solution was orally administered in an amount of 200 mg/kg, 100 mg/kg, 50 mg/kg or 25 mg/kg. One hour later, 0.1 ml of a 1% λ-carrageenin solution dissolved in a physiological saline was injected subcutaneously to the right hind paw of each rat to cause inflamation. Three hours later, the paw volume was measured by a paw volume measuring device (manufactured by Ugobasiee K.K.). A swelling volume was obtained from the difference from the value before the inflammation. Inhibition rate (%) = (l -(F)/(E)) x 100 [formula] • F: Average swelling volume in the group to which a test compound was administered. • E: Average swelling volume in the control group.

[6] = read-out: Inhibition rate of hemorrhagic lesions (%)
[7] = read-out: Inhibition rate of pancreatitis lesions (%)

T1 sequence (P00592 23-146): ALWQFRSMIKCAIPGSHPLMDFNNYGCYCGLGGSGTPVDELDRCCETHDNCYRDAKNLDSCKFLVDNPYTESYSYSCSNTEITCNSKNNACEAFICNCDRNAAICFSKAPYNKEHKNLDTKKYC

Row | Compound | inhibition at 1000 ppm [1] [%] | LD50 at 168 h ([2]; iv) [mg/kg] | inhibition at 1000 ppm [4] [%] | Inhibition rate (%) [5] [%] | inhibition in vivo at 10 mg/kg [3, 6] [%] | inhibition in vivo at 10 mg/kg [3, 7] [%] | further results
1 | O=C(Nc1cc(C(F)(F)F)cnc1NS(=O)(=O)c1ccccc1)C(F)(F)F [compound 24] | 66 | > 150 |  |  |  |  | Inhibition rate of hemorrhagic lesions (%) ([3]; 11 mg/kg continuous intravenous injection): 68%
2 | CS(=O)(=O)NNc1ncc(C(F)(F)F)cc1NC(=O)C(F)(F)C(F)(F)F [compound 40] |  | 50 to 100 |  |  |  |  | 
3 | CS(=O)(=O)Nc1ncc(C(F)(F)F)cc1NC(=O)c1ccc(F)c(F)c1 [compound 77] |  | > 80 | 61 | 22 | 66 | 70 | 
4 | CS(=O)(=O)Nc1ncc(C(F)(F)F)cc1NC(=O)CCCCCl [compound 46] | 47 |  |  | 30 |  |  | Inhibition rate of hemorrhagic lesions (%) ([3]; 46 mg/kg continuous intravenous injection): 36%
5 | COc1ccc(C(=O)Nc2cc(C(F)(F)F)cnc2NS(C)(=O)=O)cc1 [compound 44] | 43 |  | 64 |  |  |  | 
6 | O=C(Nc1cc(C(F)(F)F)cnc1NS(=O)(=O)C(F)(F)F)C1CCCCC1 [compound 91] |  | > 80 | 81 | 23 |  |  | 
7 | CCCOC(=O)Nc1cc(C(F)(F)F)cnc1NS(=O)(=O)C(C)C [compound 106] |  |  | 78 | 19 | 96 | 97 | LD50 at 168 h [2]: > 20 mg/kg
8 | CS(=O)(=O)Nc1ncc(C(F)(F)F)cc1NC(=O)C(F)(F)F [compound 12] | 89 | > 150 |  |  |  |  | 
9 | CS(=O)(=O)Nc1ncc(C(F)(F)F)cc1NC(=O)C1CC=CCC1 (centres unmarked) [compound 68] |  | > 80 | 81 |  | 74 | 77 | 
10 | CCCCS(=O)(=O)Nc1ncc(C(F)(F)F)cc1NC(=O)C1CCCCC1 [compound 53] | 37 |  | 100 |  |  |  | 
11 | CC=CC=CC(=O)Nc1cc(C(F)(F)F)cnc1NS(C)(=O)=O [compound 73] |  | > 80 | 53 | 20 | 74 | 79 | 
12 | CS(=O)(=O)Nc1ncc(C(F)(F)F)cc1NC(=O)Cc1ccccc1 [compound 60] |  | > 60 | 41 | 27 | 92 | 94 | 
13 | CS(=O)(=O)Nc1ncc(C(F)(F)F)cc1NC(=O)Cc1cccs1 [compound 61] |  | > 80 | 36 |  | 79 | 64 | 
14 | CCOC(=O)NC(=S)Nc1cc(C(F)(F)F)cnc1NS(=O)(=O)CC [compound 21] | 62 |  |  |  |  |  | LD50 at 168 h [2]: > 75 mg/kg; Inhibition rate of hemorrhagic lesions (%) ([3]; 27 mg/kg continuous intravenous injection): 57%
15 | CS(=O)(=O)Nc1ncc(C(F)(F)F)cc1NC(=O)c1cccc(F)c1 [compound 58] | 74 |  | 42 |  | 70 | 51 | 
16 | O=C(Nc1cc(C(F)(F)F)cnc1NC(=O)C(Cl)Cl)C(Cl)Cl [compound 28] | 71 |  |  | 25 |  |  | 
